Key:
Type in all cases: in vivo
Details in all cases: 250 g/h, evaluated after 13 days
[1] = system: Echinochloa crus-galli (ECHCG); experiment: Pre-emergence herbicidal glasshouse test, percentage damage
Method in brief: (§1)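 Glasshouse, 24/16 °C, 14 h photoperiod, 65% humidity. Sprayed at 250 g/h pre- (1 d) or post-emergence (8 d); evaluated 13 d after spraying, 5-point damage scale.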

[2] = system: Setaria faberi (SETFA); experiment: as above
Method in brief: as §1

[3] = system: Lolium perenne (LOLPE); experiment: as above
Method in brief: as §1

[4] = system: Alopecurus myosuroides (ALOMY); experiment: as above
Method in brief: as §1

[5] = system: Avena fatua (AVEFA); experiment: as above
Method in brief: as §1

[6] = system: Echinochloa crus-galli (ECHCG); experiment: Post-emergence herbicidal glasshouse test, percentage damage
Method in brief: as §1

[7] = system: Lolium perenne (LOLPE); experiment: as above
Method in brief: as §1

[8] = system: Alopecurus myosuroides (ALOMY); experiment: as above
Method in brief: as §1

[9] = system: Avena fatua (AVEFA); experiment: as above
Method in brief: as §1

[10] = system: Setaria faberi (SETFA); experiment: as above
Method in brief: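 Percentage damage was scored 13 days after treatment on a five-point scale (1=0-19% to 5=80-100%). Treatments were post-emergence sprays on 8-day-old wheat, barley and SETFA plants in a glasshouse (24/16 °C day/night, 14 h light, 65% humidity), using acetone/water 50:50 with 0.5% Tween 20 at the stated rates. Wheat additionally received cloquintocet-mexyl safener at 50 g/ha.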

| SMILES | ECHCG PRE percentage damage (five point scale) [1] | SETFA PRE percentage damage (five point scale) [2] | LOLPE PRE percentage damage (five point scale) [3] | ALOMY PRE percentage damage (five point scale) [4] | AVEFA PRE percentage damage (five point scale) [5] | ECHCG POST percentage damage (five point scale) [6] | LOLPE POST percentage damage (five point scale) [7] | ALOMY POST percentage damage (five point scale) [8] | AVEFA POST percentage damage (five point scale) [9] | SETFA POST percentage damage (five point scale) [10] |
| --- | --- | --- | --- | --- | --- | --- | --- | --- | --- | --- |
| CC#Cc1cc(C)c(C2C(=O)CC3(CCN(C(=O)c4ccccc4)CC3)CC2=O)c(C)c1 [Compound A7] | 5 (5=80-100%) | 5 (5=80-100%) | 5 (5=80-100%) | 5 (5=80-100%) | 5 (5=80-100%) | 5 (5=80-100%) | 5 (5=80-100%) | 5 (5=80-100%) | 5 (5=80-100%) | 5 (5=80-100%) |
| CC#Cc1cc(C)c(C2C(=O)CC3(CCN(C(=O)C4CC4)CC3)CC2=O)c(C)c1 [Compound A8, 3-(cyclopropanecarbonyl)-9-(2,6-dimethyl-4-prop-1-ynyl-phenyl)-3-azaspiro[5.5]undecane-8,10-dione] | 5 (5=80-100%) | 5 (5=80-100%) | 5 (5=80-100%) | 5 (5=80-100%) | 5 (5=80-100%) | 5 (5=80-100%) | 5 (5=80-100%) | 5 (5=80-100%) | 5 (5=80-100%) | 5 (5=80-100%) |
| CC#Cc1cc(C)c(C2C(=O)CC3(CCN(C(=O)N(C)OC)CC3)CC2=O)c(C)c1 [Compound A9] | 5 (5=80-100%) | 5 (5=80-100%) | 5 (5=80-100%) | 5 (5=80-100%) | 5 (5=80-100%) | 5 (5=80-100%) | 5 (5=80-100%) | 5 (5=80-100%) | 5 (5=80-100%) | 5 (5=80-100%) |
| CC#Cc1cc(C)c(C2C(=O)CC3(CCN(C(=O)OC(C)(C)C)CC3)CC2=O)c(C)c1 [Compound A12, tert-butyl 9-(2,6-dimethyl-4-prop-1-ynyl-phenyl)-8,10-dioxo-3-azaspiro[5.5]undecane-3-carboxylate] | 5 (5=80-100%) | 5 (5=80-100%) | 5 (5=80-100%) | 4 (4=60-79%) | 4 (4=60-79%) | 5 (5=80-100%) | 5 (5=80-100%) | 5 (5=80-100%) | 5 (5=80-100%) | 5 (5=80-100%) |
| CC#Cc1cc(C)c(C2C(=O)CC3(CCN(C(=O)N4CCOCC4)CC3)CC2=O)c(C)c1 [Compound A13] | 5 (5=80-100%) | 5 (5=80-100%) | 5 (5=80-100%) | 5 (5=80-100%) | 5 (5=80-100%) | 5 (5=80-100%) | 5 (5=80-100%) | 5 (5=80-100%) | 5 (5=80-100%) | 5 (5=80-100%) |
| CC#Cc1cc(C)c(C2=C(OC(=O)c3ncccn3)CC3(CCN(C(=O)c4ncccn4)CC3)CC2=O)c(C)c1 [Compound P23] | 5 (5=80-100%) | 5 (5=80-100%) | 5 (5=80-100%) | 5 (5=80-100%) | 4 (4=60-79%) |  | 5 (5=80-100%) | 5 (5=80-100%) | 5 (5=80-100%) | 5 (5=80-100%) |
| CC#Cc1cc(C)c(C2=C(OC(=O)OC)CC3(CCN(C(=O)C(C)(C)OC)CC3)CC2=O)c(C)c1 [Compound P26] | 5 (5=80-100%) | 5 (5=80-100%) | 5 (5=80-100%) | 5 (5=80-100%) | 5 (5=80-100%) |  | 5 (5=80-100%) | 5 (5=80-100%) | 5 (5=80-100%) | 5 (5=80-100%) |
| CC#Cc1cc(C)c(C2=C(OC(=O)OC)CC3(CCN(C(=O)C(C)O)CC3)CC2=O)c(C)c1 (centres unmarked) [Compound P31] | 5 (5=80-100%) | 5 (5=80-100%) | 5 (5=80-100%) | 5 (5=80-100%) | 5 (5=80-100%) |  | 5 (5=80-100%) | 5 (5=80-100%) | 5 (5=80-100%) | 5 (5=80-100%) |
| CC#Cc1cc(C)c(C2=C(OC(=O)OC)CC3(CCN(C(=O)C(C)OC)CC3)CC2=O)c(C)c1 (centres unmarked) [Compound P32] | 5 (5=80-100%) | 5 (5=80-100%) | 5 (5=80-100%) | 5 (5=80-100%) | 5 (5=80-100%) |  | 5 (5=80-100%) | 5 (5=80-100%) | 5 (5=80-100%) | 5 (5=80-100%) |
| CC#Cc1cc(C)c(C2=C(OC(=O)OC)CC3(CCN(C(=O)C4(C#N)CC4)CC3)CC2=O)c(C)c1 [Compound P33] | 5 (5=80-100%) | 5 (5=80-100%) | 5 (5=80-100%) | 5 (5=80-100%) | 5 (5=80-100%) |  | 5 (5=80-100%) | 5 (5=80-100%) | 5 (5=80-100%) | 5 (5=80-100%) |
| CC#Cc1cc(C)c(C2=C(OC(=O)OC)CC3(CCN(S(=O)(=O)c4ccccn4)CC3)CC2=O)c(C)c1 [Compound P34] | 5 (5=80-100%) | 5 (5=80-100%) | 5 (5=80-100%) | 5 (5=80-100%) | 5 (5=80-100%) |  | 5 (5=80-100%) | 5 (5=80-100%) | 5 (5=80-100%) | 5 (5=80-100%) |

— US12043599B2, “Herbicidal compounds” (SYNGENTA PARTICIPATIONS AG, priority 2018, dated 2024)
